Measured values reported in patent publication US20260294769A1, “ASCORBIC ACID DERIVATIVES AND COSMETIC THEREOF” (SEIWA KASEI COMPANY, LIMITED, priority 2023, published 2026).
Like-named read-outs stand apart in the source and are kept apart here.

Tests used:
[1] = Stability Test-1: residual rate of 1% aqueous solutions stored at 50° C. (HPLC); format: physicochemical; conditions: water; for remaining at 672 h: after 4 weeks
Method: (§1) For each of the samples of Synthesis Examples 1 to 6, 1% aqueous solutions were adjusted to pH 3, 5, 7, 8, and 9 with a dilute potassium hydroxide aqueous solution, and then placed in 50 mL screw tubes and sealed. […] Furthermore, the odor and coloration of the samples adjusted to pH 7 were evaluated based on the following methods and criteria, and the results are shown in Table 11.
• ⊚: 80% or more • ◯: 50% or more, less than 80% • Δ: 30% or more, less than 50% • x: Less than 30%

[2] = Stability Test-1: odor of 1% aqueous solutions adjusted to pH 7 stored at 50° C.; format: physicochemical; conditions: 1% aqueous solution pH 7, 50° C., 10 panelists
Method: as §1
(§2) • Evaluation was made by 10 panelists according to the following criteria. • 3: Almost odorless. • 2: There is a slight strange odor. • 1: A strong odor is detected. • Based on the results of the above evaluation, the following classification was made: • ◯: Total score of 10 panelists is 25 or more • Δ: Total score of 10 panelists is 16-24 • x: The total score of 10 panelists is 15 or less

[3] = Stability Test-1: coloration of 1% aqueous solutions adjusted to pH 7 stored at 50° C.; format: physicochemical; conditions: 1% aqueous solution pH 7, 50° C., 10 panelists
Method: as §1
• Evaluation was made by 10 panelists according to the following criteria. • 3: Almost no change compared to immediately after preparation. • 2: Color changes compared to immediately after preparation. • 1: Strongly colored compared to immediately after preparation. • Based on the results of the above evaluation, the following classification was made: […]

[4] = system: Normal human dermal fibroblasts (NHDF); test: Hyaluronic acid production promoting effect (ELISA of hyaluronic acid in supernatant); format: cell-based; conditions: 10 mM or less, 48 hours, control group set to 100%, N=3
Method: Normal human dermal fibroblasts (NHDF) were prepared in D-MEM containing 5% (v/v) fetal bovine serum to a cell density of 2.5×10^4 cells/well, and then pre-incubated on a 96-well plate for 24 hours. After removing the medium, samples prepared in serum-free D-MEM were added to each well and cultured for 48 hours. After the culture was completed, the amount of hyaluronic acid in the supernatant was quantified by ELISA. Measurements were performed in triplicate (N=3).
The amount of hyaluronic acid produced when the sample was measured at a concentration of 10 mM or less was compared with that of the control group, and the results (% values when the control group is set to 100%) are shown in Tables 18 to 20 based on the following criteria.

[5] = Stability Test-2: residual rate in cream of pH 7 or 9 stored at 50° C.; format: physicochemical
Method: (§3) For each of the samples of Synthesis Examples 9 to 32, (a) and (b) shown in Table 12 were each heated and mixed. After cooling, (c) shown in Table 12 was added to prepare a cream with a pH of 7 or 9. […] The odor and coloration were also evaluated according to the same method and criteria as in Test Example 1. The results regarding the residual rate are shown in Tables 13 and 14, and the results regarding the odor and coloration are shown in Tables 15 and 16.

[6] = Stability Test-2: odor of cream stored at 50° C.; format: physicochemical; conditions: 10 panelists
Description: as §2, §3

[7] = Stability Test-2: coloration of cream stored at 50° C.; format: physicochemical; conditions: 10 panelists
Description: • Evaluation was made by 10 panelists according to the following criteria. • 3: Almost no change compared to immediately after preparation. • 2: Color changes compared to immediately after preparation. • 1: Strongly colored compared to immediately after preparation. • Based on the results of the above evaluation, the following classification was made:
as §3

[8] = pH 3, 50° C., after 2 weeks, 1% aqueous solution, read-out: Residual Rate
[9] = pH 3, 50° C., 1% aqueous solution
[10] = pH 5, 50° C., after 2 weeks, 1% aqueous solution, read-out: Residual Rate
[11] = pH 5, 50° C., 1% aqueous solution
[12] = pH 7, 50° C., after 2 weeks, 1% aqueous solution, read-out: Residual Rate
[13] = pH 7, 50° C., 1% aqueous solution
[14] = pH 8, 50° C., after 2 weeks, 1% aqueous solution, read-out: Residual Rate
[15] = pH 8, 50° C., 1% aqueous solution
[16] = pH 9, 50° C., after 2 weeks, 1% aqueous solution, read-out: Residual Rate
[17] = pH 9, 50° C., 1% aqueous solution
[18] = cream pH 7, 50° C., after 2 weeks, 20160 min
[19] = cream pH 7, 50° C., after 4 weeks, 40320 min
[20] = cream pH 9, 50° C., after 2 weeks, 20160 min
[21] = cream pH 9, 50° C., after 4 weeks, 40320 min

SMILES: O=C1O[C@H]([C@@H](O)CO)C(O)=C1O [Ascorbic acid]
- remaining at 336 h [1, 8]: 50 to 80%
- remaining at 672 h [1, 9]: 30 to 50%
- remaining at 336 h [1, 10]: 50 to 80%
- remaining at 672 h [1, 11]: < 30%
- remaining at 336 h [1, 12]: < 30%
- remaining at 672 h [1, 13]: < 30%
- remaining at 336 h ([1]; pH 7 to 9, 50° C., after two weeks, read-out: residual rates): < 30%
- remaining at 336 h [1, 14]: < 30%
- remaining at 672 h [1, 15]: < 30%
- remaining at 336 h [1, 16]: < 30%
- remaining at 672 h [1, 17]: < 30%
- Odor ([2]; after 2 weeks): Δ (Total score of 10 panelists is 16-24)
- Odor ([2]; after 4 weeks): x (The total score of 10 panelists is 15 or less)
- Coloration ([3]; after 2 weeks): Δ (Total score of 10 panelists is 16-24)
- Coloration ([3]; after 4 weeks): x (The total score of 10 panelists is 15 or less)
- Hyaluronic acid production-promoting effect [4]: ± (<100%)

SMILES: O=C1OC(C(O)CO)C2=C1OCCO2 (stereo not shown) [Synthesis Example 1, 2,3-O-(1,2-ethanediyl) ascorbic acid]
- remaining at 336 h [1, 8]: ≥ 80%
- remaining at 672 h [1, 9]: ≥ 80%
- remaining at 336 h [1, 10]: ≥ 80%
- remaining at 672 h [1, 11]: ≥ 80%
- remaining at 336 h [1, 12]: 50 to 80%
- remaining at 672 h [1, 13]: 30 to 50%
- remaining at 336 h [1, 14]: 30 to 50%
- remaining at 672 h [1, 15]: < 30%
- remaining at 336 h [1, 16]: < 30%
- remaining at 672 h [1, 17]: < 30%
- Odor ([2]; after 2 weeks): ∘ (Total score of 10 panelists is 25 or more)
- Odor ([2]; after 4 weeks): ∘ (Total score of 10 panelists is 25 or more)
- Coloration ([3]; after 2 weeks): ∘ (Total score of 10 panelists is 25 or more)
- Coloration ([3]; after 4 weeks): Δ (Total score of 10 panelists is 16-24)

SMILES: O=C1OC(C(O)CO)C2=C1OCCCCO2 (stereo not shown) [Synthesis Example 3, 2,3-O-(1,4-butanediyl) ascorbic acid]
- remaining at 336 h [1, 8]: ≥ 80%
- remaining at 672 h [1, 9]: ≥ 80%
- remaining at 336 h [1, 10]: ≥ 80%
- remaining at 672 h [1, 11]: ≥ 80%
- remaining at 336 h [1, 12]: ≥ 80%
- remaining at 672 h [1, 13]: ≥ 80%
- remaining at 336 h [1, 14]: ≥ 80%
- remaining at 672 h [1, 15]: 50 to 80%
- remaining at 336 h [1, 16]: 50 to 80%
- remaining at 672 h [1, 17]: 30 to 50%
- Odor ([2]; after 2 weeks): ∘ (Total score of 10 panelists is 25 or more)
- Odor ([2]; after 4 weeks): ∘ (Total score of 10 panelists is 25 or more)
- Coloration ([3]; after 2 weeks): ∘ (Total score of 10 panelists is 25 or more)
- Coloration ([3]; after 4 weeks): ∘ (Total score of 10 panelists is 25 or more)

SMILES: O=C1OC(C(O)CO)C2=C1OC(CO)CO2 (stereo not shown) [Synthesis Example 5, 2,3-O-(1-hydroxymethyl-1,2-ethanediyl) ascorbic acid]
- remaining at 336 h [1, 8]: ≥ 80%
- remaining at 672 h [1, 9]: ≥ 80%
- remaining at 336 h [1, 10]: ≥ 80%
- remaining at 672 h [1, 11]: ≥ 80%
- remaining at 336 h [1, 12]: 50 to 80%
- remaining at 672 h [1, 13]: 30 to 50%
- remaining at 336 h [1, 14]: 50 to 80%
- remaining at 672 h [1, 15]: 30 to 50%
- remaining at 336 h [1, 16]: 50 to 80%
- remaining at 672 h [1, 17]: 30 to 50%
- Odor ([2]; after 2 weeks): ∘ (Total score of 10 panelists is 25 or more)
- Odor ([2]; after 4 weeks): ∘ (Total score of 10 panelists is 25 or more)
- Coloration ([3]; after 2 weeks): ∘ (Total score of 10 panelists is 25 or more)
- Coloration ([3]; after 4 weeks): ∘ (Total score of 10 panelists is 25 or more)

SMILES: CCCCCCCC(=O)OCC(O)C1OC(=O)C2=C1OCCCO2 (stereo not shown) [Synthesis Example 22, 6-O-octanoyl-2,3-O-(1,3-propanediyl) ascorbic acid]
- Residual Rate [5, 18]: ⊚ (95% or more)
- Residual Rate [5, 19]: ⊚ (95% or more)
- Residual Rate [5, 20]: ⊚ (95% or more)
- Residual Rate [5, 21]: ⊚ (95% or more)
- Odor ([6]; after 2 weeks): ◯ (Total score of 10 panelists is 25 or more)
- Odor ([6]; after 4 weeks): Δ (Total score of 10 panelists is 16-24)
- Coloration ([7]; after 2 weeks): ◯ (Total score of 10 panelists is 25 or more)
- Coloration ([7]; after 4 weeks): ◯ (Total score of 10 panelists is 25 or more)
- Hyaluronic acid production-promoting effect [4]: ++ (120%<)

SMILES: CCCCCCCCCCCC(=O)OCC(O)C1OC(=O)C2=C1OCCCO2 (stereo not shown) [Synthesis Example 24, 6-O-lauroyl-2,3-O-(1,3-propanediyl) ascorbic acid]
- Residual Rate [5, 18]: ⊚ (95% or more)
- Residual Rate [5, 19]: ⊚ (95% or more)
- Residual Rate [5, 20]: ⊚ (95% or more)
- Residual Rate [5, 21]: ⊚ (95% or more)
- Odor ([6]; after 2 weeks): ◯ (Total score of 10 panelists is 25 or more)
- Odor ([6]; after 4 weeks): Δ (Total score of 10 panelists is 16-24)
- Coloration ([7]; after 2 weeks): ◯ (Total score of 10 panelists is 25 or more)
- Coloration ([7]; after 4 weeks): ◯ (Total score of 10 panelists is 25 or more)
- Hyaluronic acid production-promoting effect [4]: ++ (120%<)

SMILES: CCCCCCCCCCCC(=O)OCC(OC(=O)CCCCCCCCCCC)C1OC(=O)C2=C1OCCCO2 (stereo not shown) [Synthesis Example 25, 5,6-O-dilauroyl-2,3-O-(1,3-propanediyl) ascorbic acid]
- Residual Rate [5, 18]: ⊚ (95% or more)
- Residual Rate [5, 19]: ⊚ (95% or more)
- Residual Rate [5, 20]: ⊚ (95% or more)
- Residual Rate [5, 21]: ⊚ (95% or more)
- Odor ([6]; after 2 weeks): ◯ (Total score of 10 panelists is 25 or more)
- Odor ([6]; after 4 weeks): Δ (Total score of 10 panelists is 16-24)
- Coloration ([7]; after 2 weeks): ◯ (Total score of 10 panelists is 25 or more)
- Coloration ([7]; after 4 weeks): Δ (Total score of 10 panelists is 16-24)
- Hyaluronic acid production-promoting effect [4]: ++ (120%<)

SMILES: CCCCCCCCCCCCCCCC(=O)OCC(O)C1OC(=O)C2=C1OCCCO2 (stereo not shown) [Synthesis Example 26, 6-O-palmitoyl-2,3-O-(1,3-propanediyl) ascorbic acid]
- Residual Rate [5, 18]: ⊚ (95% or more)
- Residual Rate [5, 19]: ⊚ (95% or more)
- Residual Rate [5, 20]: ⊚ (95% or more)
- Residual Rate [5, 21]: ◯ (85% or more, less than 95%)
- Odor ([6]; after 2 weeks): ◯ (Total score of 10 panelists is 25 or more)
- Odor ([6]; after 4 weeks): Δ (Total score of 10 panelists is 16-24)
- Coloration ([7]; after 2 weeks): ◯ (Total score of 10 panelists is 25 or more)
- Coloration ([7]; after 4 weeks): Δ (Total score of 10 panelists is 16-24)
- Hyaluronic acid production-promoting effect [4]: ++ (120%<)

SMILES: CC(C)CCCCCCCCCCCCCCC(=O)OCC(O)C1OC(=O)C2=C1OCCCO2 (stereo not shown) [Synthesis Example 28, 6-O-isostearoyl-2,3-O-(1,3-propanediyl) ascorbic acid]
- Residual Rate [5, 18]: ⊚ (95% or more)
- Residual Rate [5, 19]: ⊚ (95% or more)
- Residual Rate [5, 20]: ⊚ (95% or more)
- Residual Rate [5, 21]: ⊚ (95% or more)
- Odor ([6]; after 2 weeks): ◯ (Total score of 10 panelists is 25 or more)
- Odor ([6]; after 4 weeks): Δ (Total score of 10 panelists is 16-24)
- Coloration ([7]; after 2 weeks): ◯ (Total score of 10 panelists is 25 or more)
- Coloration ([7]; after 4 weeks): ◯ (Total score of 10 panelists is 25 or more)
- Hyaluronic acid production-promoting effect [4]: ++ (120%<)

SMILES: CC(C)CCCCCCCCCCCCCCC(=O)OCC(O)C1OC(=O)C2=C1OCCO2 (stereo not shown) [Synthesis Example 31, 6-O-isostearoyl-2,3-O-(1,2-ethanediyl) ascorbic acid]
- Residual Rate [5, 18]: ⊚ (95% or more)
- Residual Rate [5, 19]: ⊚ (95% or more)
- Residual Rate [5, 20]: ⊚ (95% or more)
- Residual Rate [5, 21]: ⊚ (95% or more)
- Odor ([6]; after 2 weeks): ◯ (Total score of 10 panelists is 25 or more)
- Odor ([6]; after 4 weeks): Δ (Total score of 10 panelists is 16-24)
- Coloration ([7]; after 2 weeks): ◯ (Total score of 10 panelists is 25 or more)
- Coloration ([7]; after 4 weeks): ◯ (Total score of 10 panelists is 25 or more)
- Hyaluronic acid production-promoting effect [4]: ++ (120%<)
